Legend:
lectin domain of FimH = molecular target: T1, lectin domain of FimH (Escherichia coli, UniProt P08191); experiment: Surface plasmon resonance solution competition assay; type: binding; details: solution affinity
T1 construct: The lectin domain of FimH was expressed as described previously and purified at pH 4.0; made in house
Method: The affinity of the compounds was first evaluated and then measured in a surface plasmon resonance solution competition assay. The lectin domain of FimH was expressed as described previously and purified at pH 4.0 in 50 mM HCOOH on a SPFF (sulfopropyl fast flow) ion exchange column (GE Healthcare). A CM5 sensor chip (Biacore, GE Healthcare) has been coated with a layer of amino-functionalized monovalent heptyl mannoside to 60 RU (response units) and the kinetics of FimH binding to the sensor chip has been determined. All data collection have been performed in HBS buffer complemented with 3 mM EDTA and 0.01% Tween20. Regeneration was done with a single 10 s injection of 100 mM NaOH in water.
The solution affinity provided by the Biacore software uses the equation (B−A−Kd)/2+(0.25*(A+B+Kd)^2−A*B)^0.5, with B presenting the uninhibited concentration of FimH, and A the variable compound concentration.

UTI89 E. coli = experiment: Inhibition of haemagglutination (Example 19); type: cell-based, Escherichia coli; details: two-fold dilution from 1 mM
Method: Interaction of E. coli FimH adhesins with the glycocalyx of guinea pig erythrocytes forms a cross-linked network into the wells. Glycoconjugates added in a two-fold dilution series prevents the agglutination reaction. The inhibition titer is defined as the lowest concentration of the glycoconjugate at which haemagglutination is still inhibited. UTI89 E. coli were grown statically overnight in LB at 37° C., washed three times in ice-cold phosphate-buffered saline and resolubilized. A two-fold dilution of glycoconjugates was prepared in 25 μL 20 mM HEPES pH 7.4 with 150 mM NaCl, starting from 1 mM as the highest concentration. The bacterial solution (25 μL) was added to the two-fold dilution series of the compound. Finally 50 μl of guinea pig red blood cells, washed in buffer and diluted to 5%, were added to a final 100 μL and left on ice for 30 min. before read-out. Due to serial dilutions, the maximal error is ±one well, or a factor two (FIG. 2).

[1] = tested on: CD-associated E. coli strain AIEC LF82; experiment: Hemagglutination inhibition (HAI) with AIEC LF82, guinea pig erythrocytes; type: cell-based, Escherichia coli
Method: AIEC adhesion to the gut occurs through the binding of FimH adhesins to the mannosylated glycans of intestinal cells. This scenario was first mimicked here with the highly mannosylated glycocalyx of guinea pig erythrocytes.
A two-fold dilution series of the antagonists was added to wells containing guinea pig erythrocytes and AIEC LF82 bacteria. The formation of the cross-linked network (hemagglutination) due to the interaction of the E. coli FimH adhesins with the glycocalyx of the erythrocytes was prevented at a certain concentration of inhibitors. The lowest concentration at which hemagglutination is still inhibited is defined as the inhibition titer of the antagonist. HM was included in the assay to obtain a relative inhibitory concentration (rIC) for the antagonists by dividing the inhibitory concentration (IC) of the substance of interest by the value for HM. In fact, rICs are more accurate than rough inhibition titers to compare the potency of antagonists evaluated in different assays.

human Jurkat cells = experiment: Prevention of FimH-induced apoptosis of Jurkat cells (24 h)
Method: Eventually, we tested the ability of mannose-based inhibitors to prevent the induction of cell death of human Jurkat cells under the treatment with FimH. We cultures cells with the indicated compound for 24 h and counter percentage of viable (AnV−/Pi−), apoptotic (AnV+/Pi−) and necrotic cells (AnV+/PI+). […] 2. […] 3.
Apoptosis was induced by UV-B irradiation with 90 mJ/cm^2, apoptosis of human PMN cells was induced by 24 h aging. To quantify the rate of apoptosis, cells were analyzed by flow cytometry or fluorescent microscopy. Amongst other features, apoptosis is characterized by blebbing of the cellular membrane, leading to a decrease in the forward scatter (FSC) and an increase in the sideward scatter (SSC). For detection of phosphatidylserine (PS) exposure on the cell surface staining with FITC conjugated annexin V (Böhringer, Mannheim, Germany) in combination with propidium iodide (PI) (AxV/PI) was performed. 200.000 cells were stained for 30 minutes at 4° C. with 200 ng of AxV-FITC and 500 ng propidium iodide (PI) in 500 μl Ringer's solution [Nicoletti, Migliorati, Pagliacci, Grignani and Riccardi, A rapid and simple method for measuring thymocyte apoptosis by propidium iodide staining and flow cytometry. J Immunol Methods, 1991. 139.271-9]. The samples were immediately analyzed by flow cytometry of fluorescent microscopy.

FimH = FimH (Escherichia coli, UniProt P08191); experiment: Isothermal titration calorimetry of compound 6; type: binding
Method: For compound 6 (example 3), the enthalpy, the affinity equilibrium constant Ka and the molar ratio have moreover been measured using ITC. Integrated heat effects were analyzed by nonlinear regression using a single-site binding model (Origin 7.0). The experimental data fitted to a theoretical titration curve gave the association constant (Ka), the enthalpy of binding (ΔH) and the molar ratio n. The entropic contribution to the affinity and the change in Gibbs free energy (ΔG) have been calculated from the equation ΔG=ΔH−TΔS=−RTlnKa, where T is the absolute temperature and R is the molar gas constant (8.314 J·mol−1·K−1).

T1 sequence (P08191 22-179): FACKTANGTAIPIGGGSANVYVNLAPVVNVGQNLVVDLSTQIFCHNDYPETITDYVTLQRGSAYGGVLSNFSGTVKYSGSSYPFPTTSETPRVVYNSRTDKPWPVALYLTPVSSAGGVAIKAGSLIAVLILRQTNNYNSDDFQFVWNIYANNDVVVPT
FimH, sequence (P08191 22-179): as above

For `CC(=O)c1cnc(N[C@H]2O[C@H](CO)[C@@H](O)[C@H](O)[C@@H]2O)s1` [Compound 6, 5-acetyl-2-((α-D-mannopyranosyl)amino)thiazole], the Kd (lectin domain of FimH; measurement 1) was 216 nM, the Kd (lectin domain of FimH; measurement 2) was 220 ± 7.71 nM and the “Inhibitory potency in haemagglutination (FIG. 2)” value (UTI89 E. coli) was “equivalent to the one for HM”. For the same molecule, the “Inhibitory potency in HAI (in words)” value [1] was “less potent than HM”, the “Prevention of apoptosis induction by FimH” value (human Jurkat cells; 500 nM) was “effectively prevented apoptosis induction” and the “Toxicity to Jurkat cells” value (human Jurkat cells; tested concentrations, 24 h) was “not toxic”. It also gave a Kd (FimH) of 197 nM.
